Data reported in patent publication US7332476B2, “Pyridyl substituted ketolide antibiotics” (Novartis AG, priority 2003, dated 2008).
Values after ≈ are worked out from the molar mass of the structure shown.

Assays:
Test in all cases: MIC, broth microdilution (NCCLS)
[1] = test system: Streptococcus pneumoniae Stpn_Mef 5654; format: cell-based; details: Table 5, Strain ID J (Table 4): S. pneumoniae Stpn_Mef 5654; in µg/mL (unit assumed)
In short: (§1)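 Broth microdilution per NCCLS in cation-adjusted Mueller-Hinton broth, with 2-5% lysed horse blood added for S. pneumoniae. Inoculum 3×10^5–7×10^5 CFU/ml, 2-fold drug dilutions, 18-24 h at 35° C; S. pneumoniae under 5-10% CO2, others ambient air. MIC = lowest concentration preventing visible growth.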

[2] = test system: Streptococcus pyogenes Stpy_8668; format: cell-based; details: Table 5, Strain ID D (Table 4): S. pyogenes Stpy_8668
In short: as §1

[3] = test system: Streptococcus pneumoniae Stpn_297-749; format: cell-based; details: Table 5, Strain ID F (Table 4): S. pneumoniae Stpn_297-749 Pen R
In short: as §1

E. coli Esco_25922 = format: cell-based; details: Table 5, Strain ID M (Table 4): E. coli Esco_25922; unit assumed
Protocol: Strains. The bacterial isolates listed in Table 4 were cultivated from −70° C. frozen stocks by two consecutive overnight passages (P1, P2) at 35° C. on 5% blood agar (Remel, Lenexa, Kans.). Chocolate agar (Remel) is used for Haemophilus influenzae. H. influenzae and Streptococcus pneumoniae are incubated in 5-10% CO2
Drug Stock Preparation. To determine the amount of solvent to be used to give the desired final concentration, the formula “weight obtained in mg/final concentration in mg/ml” will be used. It will give the amount of solvent in ml needed to be added to give the desired concentration. For example, if 2.5 mg/ml is the desired concentration and the weight of compound is 13.7 mg, then the amount of solvent to be added is […]. Methanol is used as the solvent to dissolve the test compounds. Further dilution of stock is done in sterile, deionized water. Drug stocks are kept frozen at −70° C., protected from light.
Susceptibility Testing. MICs are determined by the broth microdilution method in accordance with the NCCLS guidelines. In brief, organism suspensions are adjusted to a 0.5 McFarland standard to yield a final inoculum between 3×10^5 and 7×10^5 CFU/ml. Drug dilutions and inocula are made in sterile, cation adjusted Mueller-Hinton Broth (CAMHB) (Remel) for all but S. pneumoniae [CAMHB with 2-5% lysed horse blood (Remel)] and H. influenzae [Haemophilus Test Medium (Remel)]. An inoculum volume of 100 μl is added to wells containing 100 μl of broth with 2-fold serial dilutions of drug. All inoculated microdilution trays are incubated in ambient air at 35° C. for 18-24 hours, except for S. pneumoniae, and H. influenzae (both at 5-10% CO2).
Following appropriate incubation, the MIC is determined and the MIC is defined as the lowest concentration of the drug that prevented visible growth.

[4] = test system: Streptococcus pneumoniae Stpn_280-962; format: cell-based; details: Table 5, Strain ID G (Table 4): S. pneumoniae Stpn_280-962 Pen S
In short: as §1

[5] = test system: Haemophilus influenzae Hain_49247; format: cell-based; details: Table 5, Strain ID L (Table 4): H. influenzae Hain_49247; unit assumed
[6] = test system: Staphylococcus epidermidis Step_14990; format: cell-based; details: Table 5, Strain ID A (Table 4): S. epidermidis Step_14990; in µg/mL (unit assumed)
In short: as §1

[7] = test system: Streptococcus pneumoniae Stpn_Mef S 3427; format: cell-based; details: Table 5, Strain ID K (Table 4): S. pneumoniae Stpn_Mef S 3427
In short: as §1

[8] = test system: Enterococcus faecalis Enfa_29212; format: cell-based; details: Table 5, Strain ID C (Table 4): E. faecalis Enfa_29212
In short: as §1

[9] = test system: Streptococcus pneumoniae Stpn_Erm S 4297; format: cell-based; details: Table 5, Strain ID I (Table 4): S. pneumoniae Stpn_Erm S 4297
In short: as §1

[10] = test system: Staphylococcus epidermidis Step_f50654; format: cell-based; details: Table 5, Strain ID B (Table 4): S. epidermidis Step_f50654 Pen S; in µg/mL (unit assumed)
In short: as §1

[11] = test system: S. pneumoniae Stpn_Erm 6849; format: cell-based, Streptococcus pneumoniae; details: Table 5, Strain ID H (Table 4): S. pneumoniae Stpn_Erm 6849; unit assumed
In short: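 Lowest drug concentration giving no visible growth after 18-24 hours at 35° C. under 5-10% CO2 was taken as MIC. Twofold serial dilutions in CAMHB plus 2-5% lysed horse blood, final inoculum 3×10^5–7×10^5 CFU/ml, per NCCLS microdilution.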

[12] = test system: Streptococcus pneumoniae Stpn_49619; format: cell-based; details: Table 5, Strain ID E (Table 4): S. pneumoniae Stpn_49619
In short: as §1

CC[C@H]1OC(=O)[C@H](C)C(=O)[C@H](C)[C@@H](OC2O[C@H](C)C[C@H](N(C)C)[C@H]2O)[C@@](C)(OC)C[C@@H](C)C(=O)[C@H](C)[C@@H]2[C@@H]1OC(=O)N2CCCCn1cnc2ncccc21 (stereo partly shown) [Compound 4713]
MIC [1]: 3.13 | MIC [2]: =0.5 | MIC [3]: =0.5 | MIC (E. coli Esco_25922): 50 µg/mL (≈ 64.8 µM) | MIC [4]: =0.5 | MIC [5]: 3.13 µg/mL (≈ 4.05 µM) | MIC [6]: 0.4 | MIC ([7]; in µg/mL (unit assumed)): 0.4 | MIC ([8]; in µg/mL (unit assumed)): 0.1 | MIC ([9]; unit assumed): 0.1 µg/mL (≈ 0.13 µM) | MIC [10]: 0.4 | MIC [11]: 0.78 µg/mL (≈ 1.01 µM) | MIC [12]: =0.5

CC[C@H]1OC(=O)[C@H](C)C(=O)[C@H](C)[C@@H](OC2O[C@H](C)C[C@H](N(C)C)[C@H]2O)[C@@](C)(OC)C[C@@H](C)C(=O)[C@H](C)[C@@H]2[C@@H]1OC(=O)N2CCCn1cnc(-c2ccccc2)c1 (stereo partly shown) [Compound 4714]
MIC [1]: 0.4 | MIC ([2]; unit assumed): 0.1 µg/mL (≈ 0.128 µM) | MIC [3]: =0.5 | MIC (E. coli Esco_25922): > 50 µg/mL | MIC [4]: =0.5 | MIC [5]: > 50 µg/mL | MIC [6]: 6.25 | MIC ([7]; in µg/mL (unit assumed)): 0.1 | MIC ([8]; in µg/mL (unit assumed)): 0.4 | MIC ([9]; unit assumed): 6.25 µg/mL (≈ 7.98 µM) | MIC [10]: 6.25 | MIC [11]: > 50 µg/mL | MIC [12]: =0.5

CC[C@H]1OC(=O)[C@H](C)C(=O)[C@H](C)[C@@H](OC2O[C@H](C)C[C@H](N(C)C)[C@H]2O)[C@@](C)(OC)C[C@@H](C)C(=O)[C@H](C)[C@@H]2[C@@H]1OC(=O)N2CCCn1cnc2cccnc21 (stereo partly shown) [Compound 4716]
MIC [1]: 0.78 | MIC ([2]; unit assumed): 0.1 µg/mL (≈ 0.132 µM) | MIC [3]: =0.5 | MIC (E. coli Esco_25922): > 50 µg/mL | MIC [4]: =0.5 | MIC [5]: 25 µg/mL (≈ 33 µM) | MIC [6]: 6.25 | MIC ([7]; in µg/mL (unit assumed)): 0.4 | MIC ([8]; in µg/mL (unit assumed)): 0.78 | MIC ([9]; unit assumed): 25 µg/mL (≈ 33 µM) | MIC [10]: 12.5 | MIC [11]: > 50 µg/mL | MIC [12]: =0.5

CC[C@H]1OC(=O)[C@H](C)C(=O)[C@H](C)[C@@H](OC2O[C@H](C)C[C@H](N(C)C)[C@H]2O)[C@@](C)(OC)C[C@@H](C)C(=O)[C@H](C)[C@@H]2[C@@H]1OC(=O)N2CCCCn1ccc2ccccc21 (stereo partly shown) [Compound 4717]
MIC [1]: 0.2 | MIC [2]: =0.5 | MIC [3]: =0.5 | MIC (E. coli Esco_25922): > 50 µg/mL | MIC [4]: =0.5 | MIC [5]: 6.25 µg/mL (≈ 8.12 µM) | MIC [6]: 0.2 | MIC [7]: =0.05 | MIC ([8]; in µg/mL (unit assumed)): 0.1 | MIC ([9]; unit assumed): 0.4 µg/mL (≈ 0.519 µM) | MIC [10]: 0.4 | MIC [11]: 6.25 µg/mL (≈ 8.12 µM) | MIC [12]: =0.5

CC[C@H]1OC(=O)[C@H](C)C(=O)[C@H](C)[C@@H](OC2O[C@H](C)C[C@H](N(C)C)[C@H]2O)[C@@](C)(OC)C[C@@H](C)C(=O)[C@H](C)[C@@H]2[C@@H]1OC(=O)N2CCCCc1ccc2ccccc2n1 (stereo partly shown) [Compound 5960]
MIC [1]: 0.2 | MIC [2]: =0.05 | MIC [3]: =0.05 | MIC (E. coli Esco_25922): 25 µg/mL (≈ 32 µM) | MIC [4]: =0.05 | MIC [5]: 3.13 µg/mL (≈ 4 µM) | MIC [6]: 0.2 | MIC [7]: =0.05 | MIC [8]: =0.05 | MIC ([9]; unit assumed): 0.1 µg/mL (≈ 0.128 µM) | MIC [10]: 0.2 | MIC [11]: 25 µg/mL (≈ 32 µM) | MIC [12]: =0.05

CC[C@H]1OC(=O)[C@H](C)C(=O)[C@H](C)[C@@H](OC2O[C@H](C)C[C@H](N(C)C)[C@H]2O)[C@@](C)(OC)C[C@@H](C)C(=O)[C@H](C)[C@@H]2[C@@H]1OC(=O)N2CCCCc1ccnc2ccccc12 (stereo partly shown) [Compound 6220]
MIC [1]: 0.4 | MIC [2]: =0.05 | MIC [3]: =0.05 | MIC (E. coli Esco_25922): 6.25 µg/mL (≈ 7.99 µM) | MIC [4]: =0.05 | MIC [5]: 1.56 µg/mL (≈ 1.99 µM) | MIC [6]: 0.1 | MIC [7]: =0.5 | MIC [8]: =0.05 | MIC ([9]; unit assumed): 0.1 µg/mL (≈ 0.128 µM) | MIC [10]: 0.1 | MIC [11]: 3.13 µg/mL (≈ 4 µM) | MIC [12]: =0.05

CC[C@H]1OC(=O)[C@H](C)C(=O)[C@H](C)[C@@H](OC2O[C@H](C)C[C@H](N(C)C)[C@H]2O)[C@@](C)(OC)C[C@@H](C)C(=O)[C@H](C)[C@@H]2[C@@H]1OC(=O)N2CCCCn1cnc(-c2ccccc2)c1 (stereo partly shown) [Compound 6221]
MIC [1]: 0.4 | MIC [2]: =0.05 | MIC [3]: =0.05 | MIC (E. coli Esco_25922): 25 µg/mL (≈ 31.4 µM) | MIC [4]: =0.05 | MIC [5]: 3.13 µg/mL (≈ 3.93 µM) | MIC [6]: 0.1 | MIC [7]: =0.05 | MIC [8]: =0.05 | MIC [9]: =0.05 | MIC [10]: 0.1 | MIC [11]: 0.1 µg/mL (≈ 0.125 µM) | MIC [12]: =0.05

CC[C@H]1OC(=O)[C@H](C)C(=O)[C@H](C)[C@@H](OC2O[C@H](C)C[C@H](N(C)C)[C@H]2O)[C@@](C)(OC)C[C@@H](C)C2=NCCN3C(=O)O[C@H]1[C@H]3[C@H]2C (stereo partly shown) [Compound 6222]
MIC [1]: 0.78 | MIC ([2]; unit assumed): 0.2 µg/mL (≈ 0.321 µM) | MIC ([3]; unit assumed): 0.4 µg/mL (≈ 0.641 µM) | MIC (E. coli Esco_25922): 50 µg/mL (≈ 80.2 µM) | MIC ([4]; unit assumed): 0.2 µg/mL (≈ 0.321 µM) | MIC [5]: 25 µg/mL (≈ 40.1 µM) | MIC [6]: 1.56 | MIC ([7]; in µg/mL (unit assumed)): 0.4 | MIC ([8]; in µg/mL (unit assumed)): 0.4 | MIC ([9]; unit assumed): > 50 µg/mL | MIC [10]: 1.56 | MIC [11]: > 50 µg/mL | MIC ([12]; unit assumed): 0.2 µg/mL (≈ 0.321 µM)

CC[C@H]1OC(=O)[C@H](C)C(=O)[C@H](C)[C@@H](OC2O[C@H](C)C[C@H](N(C)C)[C@H]2O)[C@@](C)(OC)C[C@@H](C)C2=N[C@@H](C)CN3C(=O)O[C@H]1[C@H]3[C@H]2C (stereo partly shown) [Compound 6223]
MIC [1]: 0.78 | MIC ([2]; unit assumed): 0.2 µg/mL (≈ 0.314 µM) | MIC ([3]; unit assumed): 0.2 µg/mL (≈ 0.314 µM) | MIC (E. coli Esco_25922): 50 µg/mL (≈ 78.4 µM) | MIC ([4]; unit assumed): 0.2 µg/mL (≈ 0.314 µM) | MIC [5]: > 50 µg/mL | MIC [6]: 1.56 | MIC ([7]; in µg/mL (unit assumed)): 0.4 | MIC ([8]; in µg/mL (unit assumed)): 0.78 | MIC ([9]; unit assumed): > 50 µg/mL | MIC [10]: 3.13 | MIC [11]: > 50 µg/mL | MIC ([12]; unit assumed): 0.2 µg/mL (≈ 0.314 µM)

CC[C@H]1OC(=O)[C@H](C)C(=O)[C@H](C)[C@@H](OC2O[C@H](C)C[C@H](N(C)C)[C@H]2O)[C@@](C)(OC)C[C@@H](C)C(=O)[C@H](C)[C@H]2N(CCCCn3cnc(-c4cccnc4)c3)C(=O)O[C@]12CC (stereo partly shown) [Compound 7280]
MIC [1]: 0.4 | MIC [2]: =0.05 | MIC [3]: =0.05 | MIC (E. coli Esco_25922): 25 µg/mL (≈ 30.3 µM) | MIC [4]: =0.05 | MIC [5]: 6.25 µg/mL (≈ 7.57 µM) | MIC [6]: 0.2 | MIC ([7]; in µg/mL (unit assumed)): 0.1 | MIC ([8]; in µg/mL (unit assumed)): 0.1 | MIC [9]: =0.05 | MIC [10]: 0.2 | MIC [11]: 0.4 µg/mL (≈ 0.484 µM) | MIC [12]: =0.05
